The results in this text go back to the Deep4Chem optical property database.

The data set in a line: solvent given as SMILES.

With `O=[N+]([O-])c1ccc(-c2nc3c(c4c2-c2ccccc2CC4)-c2ccccc2CC3)cc1`, the fluorescence lifetime (in CC#N) is 2.05 ns, the fluorescence lifetime (in CS(C)=O) worked out at 1.09 ns and the fluorescence lifetime (in ClCCl) was found to be 1.13 ns.

For the compound `CCCCC1=Cc2c3ccc4cccc5ccc(c6cc(-c7ccccc7)n(c26)P1(=O)c1ccccc1)c3c45` (stereo not drawn), the fluorescence lifetime is, setting by setting: (in C1CCCCC1) 1.9 ns; (in C1CCOC1) 1.7 ns; (in C1COCCO1) 1.8 ns; (in CC#N) 1.8 ns; (in CC(C)=O) 1.8 ns; (in CO) 1.7 ns. Also, the fluorescence lifetime reads like this: (in Cc1ccccc1) 1.7 ns; (in ClC(Cl)Cl) 1.6 ns; (in ClCCl) 1.6 ns.

Turning to `O=C1/C(=C2\Sc3ccc(S(=O)(=O)Nc4ccccc4)cc3C2=O)Sc2ccc(S(=O)(=O)Nc3ccccc3)cc21`, the fluorescence lifetime runs as follows: (in C1COCCO1) 6.06 ns; (in CO) 0.13 ns; (in CS(C)=O) 0.12 ns.

Take `O=[N+]([O-])c1ccc(C#Cc2ccc3ccccc3c2)cc1`: the fluorescence lifetime runs as follows: (in ClC(Cl)Cl) 0.25 ns; (in ClCCl) 0.35 ns.

Where the note is “in Cc1ccccc1”, `COc1ccc(N2c3ccc4ccccc4c3-c3c4ccccc4cc[n+]3[B-]2(c2ccccc2)c2ccccc2)cc1` registered a fluorescence lifetime of 0.25 ns.

`[NH3+]c1ccc2ccc([O-])cc2c1` displayed a fluorescence lifetime (in O) of 13.5 ns.

`CCCCn1c2ccc(-c3cccs3)cc2c2c1c1c3ccc(-c4cccs4)cc3n(CCCC)c1c1c3ccc(-c4cccs4)cc3n(CCCC)c21` yielded a fluorescence lifetime (in C1CCOC1) of 4.2 ns.

As to `COCCOCCOCCOCC(COCCOCCOCCOC)Oc1cc(/C=C/c2ccc(/C=C(\C#N)c3ccc(C(F)(F)F)cc3)cc2)c(OC(COCCOCCOCCOC)COCCOCCOCCOC)cc1/C=C/c1ccc(/C=C(\C#N)c2ccc(C(F)(F)F)cc2)cc1`, the fluorescence lifetime (in ClCCl) turned out to be 1.6 ns.

The compound `CCC1(CC)c2ccccc2-c2c1c1c(c3c2C(CC)(CC)c2cc(/C=C/c4cccs4)ccc2-3)C(CC)(CC)c2ccccc2-1` showed a fluorescence lifetime (in C1CCOC1) of 1.5 ns.

`Clc1nc(Nc2ccccc2)nc(Nc2ccc3cc4ccccc4cc3c2)n1`: the fluorescence lifetime stood at 10.3 ns (in C1COCCO1) and 6.6 ns (in CCOC(C)=O).

Consider `CC1=[N+]2C(=C(NC(C)c3ccccc3)c3ccc(C)n3[B-]2(F)F)C=C1c1cc2n(c1)[B-](F)(F)[N+]1=CC=CC1=C2c1c(C)cc(C)cc1C` (stereo not drawn), for which the fluorescence lifetime reads like this: (in C1CCCCC1) 2.07 ns; (in CCOC(C)=O) 0.52 ns.

For `COC(=O)c1cc(=O)n(C)c2cc(-c3ccc4c(c3)OCCO4)sc12`, the fluorescence lifetime (in ClCCl) was 2.15 ns.

Turning to `O=C(O)c1c2ccccc2c(C(=O)O)c2ccccc12`, the fluorescence lifetime turned out to be 8.8 ns (in C1CCOC1) and 5.7 ns (in CN(C)C=O).

On to `Oc1ccccc1`, for which, where the note is “in C1CCCCC1”, the fluorescence lifetime turned out to be 2.5 ns.

`O=C1c2cc(F)ccc2-c2cnccc21`: the fluorescence lifetime by setting is: (in CC#N) 5.6 ns; (in CCOC(C)=O) 6.6 ns; (in Cc1ccccc1) 4.5 ns; (in ClCCl) 6.3 ns.

As for `CCCCCCN(CCCCCC)c1ccc(C#Cc2ccc(C(F)(F)F)cc2)cc1`, the fluorescence lifetime (in ClCCl) came out at 2.1 ns.

In the case of `C(=C\c1c2ccccc2cc2ccccc12)/c1cccc2ccccc12`, the fluorescence lifetime was 5 ns (in CC1CCCCC1) and 4.5 ns (in CC#N).

Under “in C1CCCCC1”, `Cc1ccccc1` yielded a fluorescence lifetime of 50 ns.

As to `COC(=O)[C@@]12N=N[C@@](C(=O)OC)(C3[C@H]1C3(C)C)[C@H]1[C@@H]2C1(C)C` (stereo partly drawn), the fluorescence lifetime (in CC#N) stood at 101 ns.

On to `COC(=O)c1cc(=O)n(C)c2cc(-c3ccc(OC)cc3)sc12`, for which the fluorescence lifetime (in ClCCl) came out at 2.3 ns.

`O=[N+]([O-])c1ccc(C#Cc2ccc3ccc(C#Cc4ccc([N+](=O)[O-])cc4)cc3c2)cc1` had a fluorescence lifetime (in ClCCl) of 0.27 ns.

Where the note is “in ClCCl”, `CC(C)(C)c1ccc(-c2nc3c4ccccc4c4ccccc4c3n2-c2ccc(C(C)(C)C)cc2)cc1` registered a fluorescence lifetime of 6.4 ns.

Compound `N#Cc1c(-n2c3ccc(-c4ccccc4)cc3c3cc(-c4ccccc4)ccc32)c(-n2c3ccccc3c3ccccc32)c(-n2c3ccc(-c4ccccc4)cc3c3cc(-c4ccccc4)ccc32)c(-n2c3ccccc3c3ccccc32)c1-n1c2ccc(-c3ccccc3)cc2c2cc(-c3ccccc3)ccc21` had a fluorescence lifetime (in Cc1ccccc1) of 5.2 ns.

The compound `N#Cc1ccc(/C=C/c2ccc3ccc4cccc5ccc2c3c45)cc1` came in with a fluorescence lifetime (in C1CCOC1) of 1.82 ns; a fluorescence lifetime (in CC1CCCCC1) of 2.05 ns; a fluorescence lifetime (in CC#N) of 1.68 ns; a fluorescence lifetime (in CO) of 1.6 ns; a fluorescence lifetime (in Cc1ccccc1) of 1.76 ns; a fluorescence lifetime (in ClC(Cl)Cl) of 1.53 ns.

With `CC(C)(C)c1cc(C(C)(C)C)c(-c2nnc(-c3ccc(-n4c5ccccc5c5ccccc54)cc3)o2)c(C(C)(C)C)c1`, the fluorescence lifetime (in CCO) was 2.25 ns.

`N#Cc1cccc2[nH]ccc12`: the fluorescence lifetime reads like this: (in C1CCOC1) 5.3 ns; (in C1COCCO1) 5.3 ns; (in CC#N) 5.4 ns; (in CC(C)O) 5.7 ns; (in CCO) 5.7 ns; (in CO) 5.8 ns. For the same compound, the fluorescence lifetime came out at 7.4 ns (in CS(C)=O); 7.8 ns (in NC=O); 9.1 ns (in O); 6.3 ns (in OCC(F)(F)F); 9.3 ns (in [2H]O[2H]).

Take `Cn1c2ccccc2c(=O)c2ccccc21`: the fluorescence lifetime (in CS(C)=O) was 8.85 ns.

On to `Cc1cc(C(F)(F)F)nc2c1ccc1nc(-c3ccc(F)c(F)c3)cn12`, for which the fluorescence lifetime (in CC#N) amounted to 8.58 ns; the fluorescence lifetime (in CCCCOC(C)=O) was 7.28 ns; the fluorescence lifetime (in CCOC(C)=O) was found to be 7.26 ns; the fluorescence lifetime (in CO) worked out at 8.3 ns; the fluorescence lifetime (in c1ccccc1) turned out to be 6.69 ns.

On to `CC(C)(C)c1ccc(C2=C(c3ccc(N4c5ccccc5C(C)(C)c5ccccc54)cc3)S(=O)(=O)c3c2sc(-c2ccc(N4c5ccccc5C(C)(C)c5ccccc54)cc2)c3-c2ccc(C(C)(C)C)cc2)cc1`, for which, for the setting “in C1CCOC1”, the fluorescence lifetime turned out to be 1.61 ns.

Compound `CC(C)(C)c1ccc2c(c1)sc1[n+]2[B-](F)(F)n2c(c3cccc4cccc2c43)=C1C#N` had a fluorescence lifetime (in ClCCl) of 6 ns.

For the setting “in c1cc(-n2c3ccccc3c3ccccc32)cc(-n2c3ccccc3c3ccccc32)c1”, `COc1ccc(-c2ccc3c(c2)c2cc(-c4ccc(OC)cc4)ccc2n3-c2ccc(C(=O)c3ccc4sc5ccccc5c4c3)cc2)cc1` returned a fluorescence lifetime of 7.8 ns.

Turning to `Cc1ccc(-n2c(-c3ccccc3O)nc(-c3ccccc3O)c2-c2ccccc2O)cc1`, the fluorescence lifetime by setting is: (in C1CCOC1) 3.1 ns; (in CC(C)O) 3.5 ns; (in CO) 2.9 ns; (in CS(C)=O) 3.7 ns; (in ClC(Cl)Cl) 1.2 ns; (in ClCCl) 1.4 ns.

Compound `CC(C)[Si]1(C(C)C)c2cc(N(C)C)ccc2-c2ccc(C(F)(F)F)cc21` had a fluorescence lifetime (in C1CCCCC1) of 3.3 ns and a fluorescence lifetime (in ClCCl) of 2.5 ns.

`CCN1C(=O)C(C2C(=O)c3c4ccccc4cc4cc5ccccc5c2c34)SC1=S` (stereo not drawn) came in with a fluorescence lifetime (in C1CCOC1) of 11.8 ns; a fluorescence lifetime (in CC#N) of 7.8 ns; a fluorescence lifetime (in CCCCCC) of 12.8 ns; a fluorescence lifetime (in Cc1ccccc1) of 13.2 ns; a fluorescence lifetime (in ClCCl) of 10.4 ns.

In the case of `COc1c2ccccc2c(OC)c2c1c1cc(Cl)ccc1n2C`, the fluorescence lifetime reads like this: (in C1CCCCC1) 21.2 ns; (in CC#N) 26.8 ns; (in CO) 25.9 ns; (in ClCCl) 23.2 ns.

On to `CC(C)(C)c1ccc(-c2nc3c4ccc(-c5ccc6ccccc6c5)cc4c4cc(-c5ccc6ccccc6c5)ccc4c3n2-c2ccc(C(C)(C)C)cc2)cc1`, for which the fluorescence lifetime (in ClCCl) came to 6.6 ns.
